Source: patent publication US20250387400A1, “TYK2 INHIBITORS” (BIOGEN MA INC., priority 2022, published 2025)
Counter-ions that a name gives are not always drawn. Like-named read-outs stand apart in the source and are kept apart here.

Key:
Assay type in all cases: biochemical
[1] = biological target: T1, catalytic kinase (JH1) domain of human TYK2 (Homo sapiens, UniProt P29597); assay: ADP-Glo kinase assay, TYK2 kinase domain
T1 construct: recombinantly generated catalytic kinase (also known as JH1) domain of human JAK1, JAK2, JAK3 and TYK2
T1 sequence (P29597 897-1176 limits assumed): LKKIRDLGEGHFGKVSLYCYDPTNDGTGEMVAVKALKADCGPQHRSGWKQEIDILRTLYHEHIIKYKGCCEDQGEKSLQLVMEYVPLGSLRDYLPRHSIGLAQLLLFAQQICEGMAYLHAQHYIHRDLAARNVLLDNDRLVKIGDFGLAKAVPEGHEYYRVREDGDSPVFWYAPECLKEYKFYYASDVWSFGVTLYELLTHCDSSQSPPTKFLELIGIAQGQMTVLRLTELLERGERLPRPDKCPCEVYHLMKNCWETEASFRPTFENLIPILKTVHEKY
Experimental: (§1) As summarized in Table 3 below, compounds of the disclosure were assessed for their ability to inhibit TYK2, JAK1, JAK2, and JAK3 activity.
(§2) The kinase activity of recombinantly generated catalytic kinase (also known as JH1) domain of human JAK1, JAK2, JAK3 and TYK2 were evaluated in a plate-based assay using the ADP-Glo™ Kinase Assay platform. […] The reactions proceed for 100 minutes and the catalytic activity is quantified by first depleting the unused ATP, converting the hydrolyzed ADP into ATP to generate luminescence in a luciferase reaction; which is the basis of the ADP-Glo platform. Compounds are tested at either 10 μM or 1 μM top concentration, 11 points of 3-fold dilution. The data is normalized and the percent activity versus log concentration of compound is fitted with a 4-parameter logistic model to generate a curve and an IC50 value.

[2] = biological target: T2, catalytic kinase (JH1) domain of human JAK1 (Homo sapiens, UniProt P23458); assay: ADP-Glo kinase assay, JAK1 kinase domain
T2 construct: 4 nM of recombinant JAK1 kinase domain is used to phosphorylate
Experimental: as §1, §2

[3] = biological target: T3, catalytic kinase (JH1) domain of human JAK2 (Homo sapiens, UniProt O60674); assay: ADP-Glo kinase assay, JAK2 kinase domain
T3 construct: Catalytic activities of recombinant JAK2, JAK3 and TYK2 kinase domain
Experimental: as §1, §2

[4] = biological target: T4, catalytic kinase (JH1) domain of human JAK3 (Homo sapiens, UniProt P52333); assay: ADP-Glo kinase assay, JAK3 kinase domain
T4 construct: Catalytic activities of recombinant JAK2, JAK3 and TYK2 kinase domain
Experimental: as §1, §2

[5] = 2 nM recombinant TYK2 kinase domain, 50 μM JAK3-974 peptide, 10 μM ATP, 100 minutes, read-out: TYK2 biochem IC50 (nM) Mean
[6] = 4 nM recombinant JAK1 kinase domain, 50 μM JAK3-342 peptide, 35 μM ATP, 100 minutes, read-out: JAK1 biochem IC50 (nM) Mean
[7] = 0.2 nM recombinant JAK2 kinase domain, 50 μM JAK3-974 peptide, 15 μM ATP, 100 minutes, read-out: JAK2 biochem IC50 (nM) Mean
[8] = 0.3 nM recombinant JAK3 kinase domain, 50 μM JAK3-974 peptide, 4 μM ATP, 100 minutes, read-out: JAK3 biochem IC50 (nM) Mean

T4 sequence (P52333 822-1111 limits assumed): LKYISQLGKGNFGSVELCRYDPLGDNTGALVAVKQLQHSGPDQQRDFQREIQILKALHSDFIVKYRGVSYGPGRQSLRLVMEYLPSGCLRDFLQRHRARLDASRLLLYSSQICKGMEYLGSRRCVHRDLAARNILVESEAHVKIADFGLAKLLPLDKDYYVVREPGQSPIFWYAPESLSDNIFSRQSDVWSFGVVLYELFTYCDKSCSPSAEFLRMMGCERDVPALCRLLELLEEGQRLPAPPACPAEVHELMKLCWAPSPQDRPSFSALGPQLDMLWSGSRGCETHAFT
T3 sequence (O60674 849-1124 limits assumed): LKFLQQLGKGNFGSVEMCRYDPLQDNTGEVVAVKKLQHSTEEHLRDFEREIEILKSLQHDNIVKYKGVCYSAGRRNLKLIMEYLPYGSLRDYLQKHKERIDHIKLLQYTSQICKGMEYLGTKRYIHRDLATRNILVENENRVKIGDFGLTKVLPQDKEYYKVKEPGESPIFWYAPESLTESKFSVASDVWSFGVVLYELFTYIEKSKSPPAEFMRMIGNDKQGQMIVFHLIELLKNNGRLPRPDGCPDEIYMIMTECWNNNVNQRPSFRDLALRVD
T2 sequence (P23458 875-1153 limits assumed): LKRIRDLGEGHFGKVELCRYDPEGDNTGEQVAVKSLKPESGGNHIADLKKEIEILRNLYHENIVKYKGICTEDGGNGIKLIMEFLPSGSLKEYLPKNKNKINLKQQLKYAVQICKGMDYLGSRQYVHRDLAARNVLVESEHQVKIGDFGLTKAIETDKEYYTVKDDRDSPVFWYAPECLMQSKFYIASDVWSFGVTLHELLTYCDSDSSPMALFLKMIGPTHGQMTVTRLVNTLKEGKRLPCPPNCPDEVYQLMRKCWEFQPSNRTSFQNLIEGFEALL

Row | SMILES | IC50 [1, 5] | IC50 [2, 6] | IC50 [3, 7] | IC50 [4, 8] | IC50 [1] | IC50 [2] | IC50 [3] | IC50 [4]
1 | Cn1cc(-c2cc3c(N4CC5CCC(C4)N5C4COC4)ccnn3c2)cn1 [Example 23, 6-(1-methyl-1H-pyrazol-4-yl)-4-(8-(oxetan-3-y1)-3,8-diazabicyclo[3.2.1]octan-3-yl)pyrrolo[1,2-b]pyridazine] | 14.5 nM | 310 nM | 185 nM | 2150 nM | – | – | – | –
2 | N#C[C@H]1C[C@@H](N2C3CCC2CN(c2ccnn4cc(-c5cnn(C(F)F)c5)cc24)C3)C1 [Example 60, (1S,3s)-3-(3-(6-(1-(difluoromethyl)-1H-pyrazol-4-yl)pyrrolo[1,2-b]pyridazin-4-yl)-3,8-diazabicyclo[3.2.1]octan-8-yl)cyclobutane-1-carbonitrile] | 2.38 nM | 25.5 nM | 17.5 nM | 132 nM | – | – | – | –
3 | Cn1cc(-c2nc3c(N4CC5CCC(C4)N5C4CNC4)ccnc3[nH]2)cn1 [Example 11, 7-(8-(azetidin-3-yl)-3,8-diazabicyclo[3.2.1]octan-3-yl)-2-(1-methyl-1H-pyrazol-4-yl)-3H-imidazo[4,5-b]pyridine hydrochloride] | 330 nM | 970 nM | 635 nM | > 5000 nM | – | – | – | –
4 | Cn1cc(-c2cc3c(N4CC5CCC(C4)N5C4CC(O)(C(F)(F)F)C4)ccnn3c2)cn1 (stereo not shown) [Example 22, 3-(3-(6-(1-methyl-1H-pyrazol-4-yl)pyrrolo[1,2-b]pyridazin-4-yl)-3,8-diazabicyclo[3.2.1]octan-8-yl)-1-(trifluoromethyl)cyclobutan-1-ol] | 305 nM | 5200 nM | 1200 nM | > 10000 nM | – | – | – | –
5 | CO[C@H]1CC[C@@H]1N1C2CCC1CN(c1ccnn3cc(-c4cnn(C)c4)cc13)C2 (racemic) [Example 51, Rac-4-(8-((1S,2S)-2-methoxycyclobutyl)-3,8-diazabicyclo[3.2.1]octan-3-yl)-6-(1-methyl-1H-pyrazol-4-yl)pyrrolo[1,2-b]pyridazine] | – | – | – | – | 745 nM | > 10000 nM | 6050 nM | > 10000 nM
6 | Cn1cc(-c2nc3c(N4CC5CCC(C4)N5[C@H]4C[C@H](C#N)C4)ccnc3[nH]2)cn1 [Example 3, (1R,3r)-3-(3-(2-(1-methyl-1H-pyrazol-4-yl)-3H-imidazo[4,5-b]pyridin-7-yl)-3,8-diazabicyclo[3.2.1]octan-8-yl)cyclobutane-1-carbonitrile] | 44 nM | 430 nM | 236 nM | 1450 nM | – | – | – | –
7 | Cc1cc(-c2cc3c(N4CC5CCC(C4)N5C4CC(C#N)C4)ccnn3c2)cnn1 (stereo not shown) [Example 57, 3-(3-(6-(6-methylpyridazin-4-yl)pyrrolo[1,2-b]pyridazin-4-yl)-3,8-diazabicyclo[3.2.1]octan-8-yl)cyclobutane-1-carbonitrile] | 13 nM | 134 nM | 108 nM | 690 nM | – | – | – | –
8 | Cn1cc(-c2cc3c(N4CC5CCC(C4)N5[C@H]4C[C@@H](C#N)C4)ncnc3[nH]2)cn1 [Example 64, (1S,3s)-3-(3-(6-(1-methyl-1H-pyrazol-4-yl)-7H-pyrrolo[2,3-d]pyrimidin-4-yl)-3,8-diazabicyclo[3.2.1]octan-8-yl)cyclobutane-1-carbonitrile] | 41.5 nM | 340 nM | 260 nM | 205 nM | – | – | – | –
9 | Cn1cc(-c2nc3c(N4CC5CCC(C4)N5C4COC4)ccnc3[nH]2)cn1 [Example 9, 2-(1-methyl-1H-pyrazol-4-yl)-7-(8-(oxetan-3-yl)-3,8-diazabicyclo[3.2.1]octan-3-yl)-3H-imidazo[4,5-b]pyridine] | – | – | – | – | 42.5 nM | 275 nM | 220 nM | > 1000 nM
10 | c1cc(-c2cc3c(N4CC5CCC(C4)N5C4COC4)ccnn3c2)cnn1 [Example 56, 4-(8-(oxetan-3-yl)-3,8-diazabicyclo[3.2.1]octan-3-yl)-6-(pyridazin-4-yl)pyrrolo[1,2-b]pyridazine] | 90 nM | 820 nM | 950 nM | > 10000 nM | – | – | – | –
11 | Cc1cc(-c2cc3c(N4CC5CCC(C4)N5[C@H]4C[C@H](C#N)C4)ccnn3c2)on1 [Example 58, (1R,3r)-3-(3-(6-(3-methylisoxazol-5-yl)pyrrolo[1,2-b]pyridazin-4-yl)-3,8-diazabicyclo[3.2.1]octan-8-yl)cyclobutane-1-carbonitrile] | – | – | – | – | 40.5 nM | 795 nM | 385 nM | 3450 nM
12 | Cn1cc(-c2nc3c(N4CC5CCC(C4)N5[C@H]4CC[C@H]4O)ccnc3[nH]2)cn1 (racemic) [Example 8, (1RS,2SR)-2-(3-(2-(1-methyl-1H-pyrazol-4-yl)-3H-imidazo[4,5-b]pyridin-7-yl)-3,8-diazabicyclo[3.2.1]octan-8-yl)cyclobutan-1-ol] | 830 nM | 7100 nM | 3150 nM | > 10000 nM | – | – | – | –
13 | Cn1cc(-c2cc3c(N4CC5CCC(C4)N5[C@H]4C[C@@H](CC#N)C4)ccnn3c2)cn1 [Example 44, 2-((1s,3s)-3-(3-(6-(1-methyl-1H-pyrazol-4-yl)pyrrolo[1,2-b]pyridazin-4-yl)-3,8-diazabicyclo[3.2.1]octan-8-yl)cyclobutyl)acetonitrile] | 82 nM | 1700 nM | 900 nM | 3550 nM | – | – | – | –
14 | Cn1cc(-c2cc3c(N4CC5CCC(C4)N5[C@H]4CC[C@H]4O)ccnn3c2)cn1 (racemic) [Example 50, rac-(1R,2S)-2-(3-(6-(1-methyl-1H-pyrazol-4-yl)pyrrolo[1,2-b]pyridazin-4-yl)-3,8-diazabicyclo[3.2.1]octan-8-yl)cyclobutan-1-ol] | 505 nM | > 10000 nM | 7350 nM | > 10000 nM | – | – | – | –
15 | Cn1cc(-c2cc3c(N4CC5CCC(C4)N5[C@H]4C[C@H](C#N)C4)ncnc3[nH]2)cn1 [Example 63, (1R,3r)-3-(3-(6-(1-methyl-1H-pyrazol-4-yl)-7H-pyrrolo[2,3-d]pyrimidin-4-yl)-3,8-diazabicyclo[3.2.1]octan-8-yl)cyclobutane-1-carbonitrile] | 260 nM | 4250 nM | 1800 nM | 1650 nM | – | – | – | –
16 | COCC[C@]1(C#N)C[C@H](N2C3CCC2CN(c2ccnn4cc(-c5cnn(C)c5)cc24)C3)C1 [Example 38, (1r,3r)-1-(2-methoxyethyl)-3-(3-(6-(1-methyl-1H-pyrazol-4-yl)pyrrolo[1,2-b]pyridazin-4-yl)-3,8-diazabicyclo[3.2.1]octan-8-yl)cyclobutane-1-carbonitrile] | 185 nM | 1400 nM | 1100 nM | 7300 nM | – | – | – | –
17 | Cn1cc(-c2nc3c(N4CC5CCC(C4)N5[C@H]4C[C@@H](C#N)C4)ccnc3[nH]2)cn1 [Example 4, (1S,3s)-3-(3-(2-(1-methyl-1H-pyrazol-4-yl)-3H-imidazo[4,5-b]pyridin-7-yl)-3,8-diazabicyclo[3.2.1]octan-8-yl)cyclobutane-1-carbonitrile] | 2.47 nM | 18.7 nM | 9.93 nM | 65.3 nM | – | – | – | –
18 | Cn1cc(-c2cc3c(N4CC5CCC(C4)N5[C@@H]4C[C@H](C#N)C4(C)C)ccnn3c2)cn1 (single isomer, unassigned) [Example 48] | – | – | – | – | 35 nM | 925 nM | 180 nM | 1350 nM
19 | Cn1cc(-c2nc3c(N4CC5CCC(C4)N5[C@H]4C[C@@](C)(C#N)C4)ccnc3[nH]2)cn1 [Example 2, (1S,3s)-1-methyl-3-(3-(2-(1-methyl-1H-pyrazol-4-yl)-3H-imidazo[4,5-b]pyridin-7-yl)-3,8-diazabicyclo[3.2.1]octan-8-yl)cyclobutane-1-carbonitrile] | 1.2 nM | 14.7 nM | 9 nM | 68 nM | – | – | – | –
